From patent publication US8541418B2, “Inhibitors of polo-like kinase” (Elan Pharmaceutical, Inc., priority 2009, dated 2013) come the findings set out here.

Holding throughout (type): biochemical
One assay concerns the target PLK1 (Homo sapiens, UniProt P53350). Kind of assay: PLK TR-FRET peptide assay, PLK1. The note with it: GST-PLK1, 60 min reaction.
For a further assay, the target named is PLK2 (Homo sapiens, UniProt Q9NYY3). Kind of assay: PLK TR-FRET peptide assay, PLK2. Particulars: for IC50: PLK TR-FRET peptide assay, GST-PLK2, 60 min reaction, read-out: Plk2 IC50; for relative PLK2 activity of the enantiomers: compared with the opposite enantiomer.
Chain of PLK2 (Q9NYY3 whole entry): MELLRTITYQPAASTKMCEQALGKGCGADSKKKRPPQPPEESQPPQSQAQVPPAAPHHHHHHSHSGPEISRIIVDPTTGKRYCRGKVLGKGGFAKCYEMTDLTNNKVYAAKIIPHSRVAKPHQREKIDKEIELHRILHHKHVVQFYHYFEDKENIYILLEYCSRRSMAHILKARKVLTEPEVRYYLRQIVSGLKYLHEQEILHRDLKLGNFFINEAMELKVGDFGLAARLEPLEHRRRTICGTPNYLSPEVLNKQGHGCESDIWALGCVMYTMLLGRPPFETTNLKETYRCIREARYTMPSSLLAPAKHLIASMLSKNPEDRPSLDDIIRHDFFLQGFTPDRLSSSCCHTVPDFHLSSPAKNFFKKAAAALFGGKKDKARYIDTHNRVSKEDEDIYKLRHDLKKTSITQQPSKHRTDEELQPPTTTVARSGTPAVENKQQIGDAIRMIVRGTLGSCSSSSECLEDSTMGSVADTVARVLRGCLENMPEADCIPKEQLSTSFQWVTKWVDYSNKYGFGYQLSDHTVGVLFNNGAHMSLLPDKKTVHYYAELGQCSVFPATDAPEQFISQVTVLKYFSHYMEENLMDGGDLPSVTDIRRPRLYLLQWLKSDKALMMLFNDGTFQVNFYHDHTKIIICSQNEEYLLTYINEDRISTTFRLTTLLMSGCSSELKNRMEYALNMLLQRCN
In the next assay the target is PLK3 (Homo sapiens, UniProt Q9H4B4). Put plainly: PLK TR-FRET peptide assay, PLK3. Particulars: GST-PLK3, 15 min reaction, read-out: Plk3 IC50.
Chain of PLK3 (Q9H4B4 whole entry): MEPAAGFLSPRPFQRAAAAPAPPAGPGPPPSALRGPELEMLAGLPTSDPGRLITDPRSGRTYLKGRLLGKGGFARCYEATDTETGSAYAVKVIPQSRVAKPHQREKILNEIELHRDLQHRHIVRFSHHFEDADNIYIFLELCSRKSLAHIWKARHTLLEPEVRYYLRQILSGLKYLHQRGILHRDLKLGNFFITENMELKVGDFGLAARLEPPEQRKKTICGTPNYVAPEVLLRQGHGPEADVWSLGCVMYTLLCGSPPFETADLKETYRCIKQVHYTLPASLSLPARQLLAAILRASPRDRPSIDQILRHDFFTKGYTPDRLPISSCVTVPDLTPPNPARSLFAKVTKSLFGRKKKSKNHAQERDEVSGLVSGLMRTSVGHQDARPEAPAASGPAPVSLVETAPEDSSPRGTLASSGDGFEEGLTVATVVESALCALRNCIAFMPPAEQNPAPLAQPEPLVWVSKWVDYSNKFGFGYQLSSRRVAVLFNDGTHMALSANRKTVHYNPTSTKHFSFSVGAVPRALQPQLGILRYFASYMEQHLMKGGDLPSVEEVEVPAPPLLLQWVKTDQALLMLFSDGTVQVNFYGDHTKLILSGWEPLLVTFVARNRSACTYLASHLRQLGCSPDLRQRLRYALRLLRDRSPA

Chain of PLK1 (P53350 whole entry): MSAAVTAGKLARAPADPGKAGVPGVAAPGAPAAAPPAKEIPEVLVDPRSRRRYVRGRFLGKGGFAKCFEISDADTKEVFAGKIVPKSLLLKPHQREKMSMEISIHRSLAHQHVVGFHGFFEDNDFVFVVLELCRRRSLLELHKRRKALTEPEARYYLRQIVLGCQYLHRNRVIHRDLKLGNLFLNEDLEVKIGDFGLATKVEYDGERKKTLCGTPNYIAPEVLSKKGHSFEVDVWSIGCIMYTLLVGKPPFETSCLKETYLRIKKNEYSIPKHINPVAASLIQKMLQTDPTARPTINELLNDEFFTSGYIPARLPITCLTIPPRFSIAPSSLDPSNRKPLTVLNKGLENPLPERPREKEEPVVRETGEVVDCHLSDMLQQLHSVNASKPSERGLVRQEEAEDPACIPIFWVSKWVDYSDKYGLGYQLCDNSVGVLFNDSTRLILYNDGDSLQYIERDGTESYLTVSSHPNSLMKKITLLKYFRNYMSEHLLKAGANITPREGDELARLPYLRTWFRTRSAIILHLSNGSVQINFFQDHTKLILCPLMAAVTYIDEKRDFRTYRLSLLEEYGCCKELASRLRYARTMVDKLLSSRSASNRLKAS

Take `CC[C@@H]1C(=O)N(C)c2cnc(-n3ccnc3-c3cccc(F)c3)nc2N1C1CC(F)(F)C1` [Example 194, (R)-8-(3,3-difluorocyclobutyl)-7-ethyl-2-(2-(3-fluorophenyl)-1H-imidazol-1-yl)-5-methyl-7,8-dihydropteridin-6(5H)-one]: the IC50 at PLK1 was below 1 µM; on PLK2 it was below 1 µM; at PLK3, 10 to 50 µM.

For the compound `CC[C@@H]1C(=O)N(C)c2cnc(-c3cnoc3-c3nccs3)nc2N1C(C)C` [Example 187, (R)-7-ethyl-8-isopropyl-5-methyl-2-(5-(thiazol-2-yl)isoxazol-4-yl)-7,8-dihydropteridin-6(5H)-one], the IC50 against PLK1, at PLK2 and at PLK3 was 10 to 50 µM each time.

As for `CCC1C(=O)N(C)c2cnc(-n3cc[n+](C)c3-c3ccccc3)nc2N1NC` (centres unmarked) [Example 284, 1-(7-ethyl-5-methyl-8-(methylamino)-6-oxo-5,6,7,8-tetrahydropteridin-2-yl)-3-methyl-2-phenyl-1H-imidazol-3-ium], the IC50 against PLK1, at PLK2 and on PLK3 was above 50 µM throughout.

For the compound `CC[C@]12CCCCN1c1nc(-n3ccnc3-c3cc(F)cc(F)c3)ncc1N(C)C2=O` [Example 250, (R)-2-(2-(3,5-difluorophenyl)-1H-imidazol-1-yl)-6a-ethyl-5-methyl-7,8,9,10-tetrahydro-5H-pyrido[2,1-h]pteridin-6(6aH)-one], the IC50 on PLK1, on PLK2 and at PLK3 was above 50 µM throughout.

Turning to `CCC12CCCCN1c1nc(-n3ccnc3-c3ccccc3)ncc1N(C)C2=O` (racemic) [Example 238, (+/−) 6a-ethyl-5-methyl-2-(2-phenyl-1H-imidazol-1-yl)-7,8,9,10-tetrahydro-5H-pyrido[2,1-h]pteridin-6(6aH)-one], the IC50 at PLK1 was 1 to 10 µM; on PLK2, below 1 µM; on PLK3, 10 to 50 µM.

Take `CC[C@@H]1C(=O)N(C)c2cnc(-n3ccnc3-c3cccnc3)nc2N1C1CCCC1` [Example 67, (R)-8-cyclopentyl-7-ethyl-5-methyl-2-(2-(pyridin-3-yl)-1H-imidazol-1-yl)-7,8-dihydropteridin-6(5H)-one]: the IC50 against PLK1, at PLK2 and on PLK3 was below 1 µM throughout.

On to `CC[C@@H]1C(=O)N(C)c2cnc(-n3ccnc3-c3ccccc3)nc2N1C(C)C1CC1` (stereo partly drawn) [Example 350, (7R)-8-(1-cyclopropylethyl)-7-ethyl-5-methyl-2-(2-phenyl-1H-imidazol-1-yl)-7,8-dihydropteridin-6(5H)-one], for which the IC50 at PLK1, on PLK2 and at PLK3 was below 1 µM in each case.

As for `CCC12CCCCCN1c1nc(-n3ccnc3-c3ccccc3)ncc1N(C)C2=O` (racemic) [Example 205, (+/−) 6a-ethyl-5-methyl-2-(2-phenyl-1H-imidazol-1-yl)-6a,7,8,9,10,11-hexahydroazepino[2,1-h]pteridin-6(5H)-one], the IC50 against PLK1 is 10 to 50 µM; on PLK2 it was below 1 µM; on PLK3, 10 to 50 µM.

Regarding `CC[C@@H]1C(=O)N(C)c2cnc(-n3ccnc3N3CCOCC3)nc2N1C1CCCC1` [Example 87, (R)-8-cyclopentyl-7-ethyl-5-methyl-2-(2-morpholino-1H-imidazol-1-yl)-7,8-dihydropteridin-6(5H)-one], the IC50 against PLK1 was 1 to 10 µM; on PLK2, 1 to 10 µM; at PLK3 it was above 50 µM.

Consider `CC[C@@H]1C(=O)N(C)c2cnc(-c3ccccc3C(F)(F)F)nc2N1C1CCC1` [Example 98, (R)-8-cyclobutyl-7-ethyl-5-methyl-2-(2-(trifluoromethyl)phenyl)-7,8-dihydropteridin-6(5H)-one], for which the values for the IC50 against PLK1, at PLK2 and on PLK3 were 10 to 50 µM, 1 to 10 µM and above 50 µM, respectively.

As to `CC[C@@]12CCCN1c1nc(-n3ccnc3-c3cccc(-n4cccn4)c3)ncc1N(C)C2=O` [Example 276, (S)-2-(2-(3-(1H-pyrazol-1-yl)phenyl)-1H-imidazol-1-yl)-6a-ethyl-5-methyl-6a,7,8,9-tetrahydropyrrolo[2,1-h]pteridin-6(5H)-one], the results for the IC50 against PLK1, at PLK2 and at PLK3 were 10 to 50 µM, below 1 µM and above 50 µM, respectively.

As to `CC[C@@]12CCCN1c1nc(-n3ccnc3-c3nccc4ccccc34)ncc1N(C)C2=O` [Example 206, (S)-6a-ethyl-2-(2-(isoquinolin-1-yl)-1H-imidazol-1-yl)-5-methyl-6a,7,8,9-tetrahydropyrrolo[2,1-h]pteridin-6(5H)-one], the IC50 is above 50 µM against PLK1, 1 to 10 µM on PLK2 and 10 to 50 µM at PLK3.

For `CC[C@@]12CCCCN1c1nc(-n3ccnc3-c3cc(F)cc(F)c3)ncc1N(C)C2=O` [Example 249, (S)-2-(2-(3,5-difluorophenyl)-1H-imidazol-1-yl)-6a-ethyl-5-methyl-7,8,9,10-tetrahydro-5H-pyrido[2,1-h]pteridin-6(6aH)-one], the IC50 on PLK1 is 1 to 10 µM; at PLK2, below 1 µM; on PLK3, above 50 µM. Moreover, at PLK2, the “relative PLK2 activity of the enantiomers” value is listed as “more active compound”.

As to `CC[C@@]12CCCCN1c1nc(-n3ccnc3-c3cc(F)c(F)c(F)c3)ncc1N(C)C2=O` [Example 266, (S)-6a-ethyl-5-methyl-2-(2-(3,4,5-trifluorophenyl)-1H-imidazol-1-yl)-7,8,9,10-tetrahydro-5H-pyrido[2,1-h]pteridin-6(6aH)-one], the figures for the IC50 against PLK1, at PLK2 and on PLK3 were above 50 µM, below 1 µM and above 50 µM, respectively. For the same compound, on PLK2, the “relative PLK2 activity of the enantiomers” value was “more active compound”.

With `CC[C@@H]1C(=O)N(C)c2cnc(-c3cccc(OCc4ccccc4)c3)nc2N1C1CCCC1` [Example 72, (R)-2-(3-(benzyloxy)phenyl)-8-cyclopentyl-7-ethyl-5-methyl-7,8-dihydropteridin-6(5H)-one], the figures for the IC50 at PLK1, at PLK2 and on PLK3 were above 50 µM, 10 to 50 µM and above 50 µM, respectively.

`CC[C@@]12CCCN1c1nc(-n3ccnc3-c3cccc(OC(F)(F)F)c3)ncc1N(C)C2=O` [Example 251, (S)-6a-ethyl-5-methyl-2-(2-(3-(trifluoromethoxy)phenyl)-1H-imidazol-1-yl)-6a,7,8,9-tetrahydropyrrolo[2,1-h]pteridin-6(5H)-one]: the IC50 against PLK1 was 10 to 50 µM; on PLK2, below 1 µM; on PLK3, above 50 µM.

As to `CC[C@@]12CCCN1c1nc(-n3ccnc3-c3cccc(Br)c3)ncc1N(C)C2=O` [Example 252, (S)-2-(2-(3-bromophenyl)-1H-imidazol-1-yl)-6a-ethyl-5-methyl-6a,7,8,9-tetrahydropyrrolo[2,1-h]pteridin-6(5H)-one], the values for the IC50 against PLK1 and on PLK3 were 1 to 10 µM and 10 to 50 µM, respectively.

As for `CC[C@@H]1C(=O)N(C)c2cnc(-n3ccnc3)nc2N1C1CC(F)(F)C1` [Example 303, (R)-8-(3,3-difluorocyclobutyl)-7-ethyl-2-(1H-imidazol-1-yl)-5-methyl-7,8-dihydropteridin-6(5H)-one], the IC50 against PLK1 and on PLK3 was 10 to 50 µM in each case.

In the case of `CC[C@@H]1C(=O)N(C)c2cnc(-c3ccncc3CNC(=O)OC(C)(C)C)nc2N1C1CCCC1` [Example 106, (R)-tert-butyl (4-(8-cyclopentyl-7-ethyl-5-methyl-6-oxo-5,6,7,8-tetrahydropteridin-2-yl)pyridin-3-yl)methylcarbamate], the IC50 on PLK1 is 10 to 50 µM; on PLK3 it was above 50 µM.
